Results reported in article PMC8636514, “Therapeutic potential of TRPM8 antagonists in prostate cancer” (Scientific Reports, 2021).

Columns and labels:
PC3 cells = assay: DNA synthesis (BrdU incorporation) in PC3 cells; format: cell-based; conditions: cycling or androgen-stimulated (10 nM R1881) cells, compound 1 µM
Procedure: (§1) Cells on coverslips were pulsed in vivo with BrdU (Sigma-Aldrich; at 100 μM, final concentration) and left unchallenged or challenged with 10 nM R1881 for 18 h, in the absence or presence of the indicated compounds. Cells were fixed, permeabilized, washed and the BrdU incorporation was analysed as reported. Nuclei were stained with Hoechst and cells on coverslips were scored by IF microscopy, using a DMLB Leica (Leica) fluorescent microscope, equipped with HCX PL Apo 63 × oil objective. Different fields from each coverslip were analyzed and BrdU incorporation was calculated by the formula: percentage of BrdU-positive cells = (No. of BrdU-positive cells/No. of total cells) × 100. Data in the graphs derive from at least 1000 scored cells for each coverslip. Representative images were captured using DC480 camera (Leica) and acquired using Leica Suite software. They are representative of three different experiments.

DU145 cells = assay: DNA synthesis (BrdU incorporation) in DU145 cells; format: cell-based; conditions: cycling or androgen-stimulated (10 nM R1881) cells, compound 1 µM
Procedure: as §1

22Rv1 cells [1] = assay: DNA synthesis (BrdU incorporation) in 22Rv1 cells; format: cell-based, human; conditions: 10 nM R1881, 18 h, compound 1 μM
Procedure: as §1

DU-CaP cells = assay: DNA synthesis (BrdU incorporation) in DU-CaP cells; format: cell-based, human; conditions: 10 nM R1881, 18 h, compound 1 μM
Procedure: as §1

LNCaP cells = assay: Wound scratch assay in LNCaP cells; format: cell-based, human; conditions: 10 nM R1881, 20 h, compound 1 μM
Procedure: (§2) In wound scratch analysis, 1.8 × 10^5 cells were seeded in a 24-well plate and made quiescent. Cells were then wounded using 10 µl sterile pipette tips and washed with PBS. They were left un-stimulated or stimulated for the indicated times, in the absence or presence of the selected compounds. To avoid cell proliferation, cytosine arabinoside (Sigma-Aldrich) at 50 μM (final concentration) was included in the cell medium. Different fields were analysed by contrast-phase microscopy, as below described in this section. Migration and invasion assays were done as reported. In migration assay, we used 3 × 10^4 cells in collagen pre-coated Boyden’s chambers with 8 μm polycarbonate membrane (Falcon). The indicated stimuli were added to the upper and the lower chambers. […] Migrating and invading cells were scored by fluorescence microscopy, as below described in this section.
(§3) In wound scratch assay, different fields were analysed using DMIRB inverted microscope (Leica) equipped with N-Plan 10 × objective (Leica), as reported. LNCaP organoids were analysed using the same microscope equipped with C-Plan 40 × or HCX PL Fluotar 63 × objectives (Leica). […] The relative organoid size was calculated using the same software and expressed as a fold increase over the basal organoid size (measured at 3th day). The wound gap was calculated using Image J Software and expressed as % of the decrease in the wound area. […]

22Rv1 cells [2] = assay: Transmigration assay, 22Rv1 cells; format: cell-based, human; conditions: 10 nM R1881, compound 1 μM; compared with LNCaP
Procedure: as §2, §3

22Rv1 cells [3] = assay: Invasion assay, 22Rv1 cells; format: cell-based, human; conditions: 10 nM R1881, compound 1 μM; compared with LNCaP
Procedure: as §2, §3

PSA = PSA secretion (ELISA) from LNCaP cells; format: cell-based, human; conditions: compound 1 μM; for androgen-induced PSA secretion: 10 nM R1881, 48 h; for PSA secretion when used alone: no R1881
Procedure: It was done in culture medium using the PSA ELISA kit (Abnova-Taiwan Corporation, Taiwan), according to the manufacturer’s instructions. Released PSA was analyzed at 450 nm using the EnSpire Multimode Plate Reader (Perkin-Elmer, U.S.A.).

[4] = tested on: FAK, paxillin, ERK, RSK and Src tyrosine kinase; assay: Western blot of androgen-induced rapid actions in LNCaP cells (Fig. 6c); format: cell-based, human; conditions: 10 nM R1881, 10 min, compound 1 μM
From the text: All performed as reported. The mouse monoclonal anti-AR (441; Santa Cruz) antibody was used in Co-Ip or WB approaches. TRPM8 was detected using the rabbit polyclonal anti-TRPM8 (NBP1-97311; Novus Biological). […] The rabbit polyclonal anti-ERK (C-14; Santa Cruz), antibody was used to detect total ERK. FAK and P-Tyr397 FAK were detected using the mouse monoclonal anti-FAK (Clone 77/610077 BD Transduction Laboratories) or anti P-Tyr397 FAK (Clone 14/611722; BD Transduction Laboratories) antibodies, respectively. P-Tyr118 paxillin and total paxillin were detected using the rabbit polyclonal anti-P-Y118 (#2541, Cell Signaling) or the mouse monoclonal anti-paxillin (clone 349; BD Biosciences) antibodies, respectively. […] P-Tyr 416 Src and Src were detected using the rabbit monoclonal anti P-Tyr 416 Src (#6943; Cell Signaling) or the mouse monoclonal anti Src (Calbiochem) antibodies, respectively. ERα and ERβ were detected using the rabbit polyclonal anti-ERα (543; Santa Cruz) or anti-ERβ (Upstate Biotechnology, U.S.A.) antibodies. Cyclin D1, p27 and Cdk4 were stained using the mouse monoclonal anti-cyclin D1 (clone AM29; from Zymed Laboratories Inc.), the rabbit polyclonal anti-p27 (C-19; Santa Cruz) or anti Cdk-4 (c-22; Santa Cruz) antibodies, respectively. The mouse monoclonal anti-tubulin (Sigma-Aldrich) antibody was used to detect tubulin. The ECL system (GE Healthcare) was employed to reveal immune-reactive proteins. Densitometric analysis of WB was performed by using Image J Software (https://imagej.nih.gov/ij).

SMILES	BrdU incorporation (PC3 cells)	BrdU incorporation (DU145 cells)	androgen-stimulated BrdU incorporation (22Rv1 cells [1])	androgen-stimulated BrdU incorporation (DU-CaP cells)	wound-gap closure in androgen-treated cells (LNCaP cells)	androgen-induced migration (22Rv1 cells [2])	androgen-induced invasion (22Rv1 cells [3])	androgen-induced PSA secretion (PSA)	PSA secretion when used alone (PSA)	androgen-elicited activation of FAK, paxillin, ERK, RSK and Src [4]
c1ccc(COc2ccc3[nH]cc(CCNCc4ccc(Oc5ccccc5)cc4)c3c2)cc1 [Compound 4]	did not affect	did not affect	significantly inhibited	significantly inhibited	stronger effect	Superimposable results	Superimposable results	negligible inhibition	Neither the two TRPM8 antagonists, nor enzalutamide did modify such response	impaired at similar extent
COC(=O)[C@H](Cc1c[nH]c2ccccc12)N(Cc1ccccc1)Cc1ccccc1 [Compound 6]	did not affect	did not affect	significantly inhibited	significantly inhibited	stronger effect	Superimposable results	Superimposable results	negligible inhibition	Neither the two TRPM8 antagonists, nor enzalutamide did modify such response	impaired at similar extent
